Source: patent publication US20220079916A1, “USE OF GERANYLFLAVONE A IN PREPARATION OF DRUG FOR PROMOTING HEALING OF WOUNDS” (HANYI BIO-TECHNOLOGY COMPANY LTD., priority 2019, published 2022)

Experiments:
[1] = system: whole cortex wound of wild C57 adult male mice; test: Experiment of skin wound healing (Example 2, wound without bacterial infection); assay type: in vivo, mice (C57BL/6); details: 10 mg/mouse mixed with 5 mg vaseline
Protocol: Wild C57 adult male mice (C57BL/6, purchased from Vital River) were taken and anesthetized, and then subjected to backside unhairing to establish a whole cortex wound with a 6 mm biopsy puncher. Attention should be paid to disinfection for preventing infection.
A normal control group: 5 mice, no administration.
A group administrated with vaseline: vaseline (vaseline for medical purpose, purchased from Tianjin Zhiyuan Chemical Reagent Co., Ltd., the same below), 5 mg vaseline/mouse, 5 mice.
A group administrated with A drug A: 10 mg/mouse, 10 mice (as a flavonoid control, and the drug A was soybean isoflavones).
A group administrated with a drug B: 10 mg/mouse, 10 mice (as a flavonoid control, and the drug B was quercetin).
A group administrated with cannflavin A: cannflavin A, 10 mg/mouse, 10 mice. The administration modes of the latter 4 groups were all application onto the wound, and the administration was conducted once a day. Because vaseline was a commonly used ointment base^[8], in the latter 3 groups, the drug A, the drug B or cannflavin A were respectively well mixed with 5 mg of vaseline and then administered.
Photos were taken to record a wound healing condition of mice on days 0, 4 and 7 of administration, and the healing degree of a wound area was calculated by the PhotoShop software with 1 cm^2 as a scale. […]

[2] = system: whole cortex wound inoculated with Staphylococcus aureus, mice with type II diabetes; test: Healing of skin wound infected with Staphylococcus aureus (2), comparison with flavonoid controls (Example 4); assay type: in vivo, mice (C57BL/6); details: 10 mg/mouse mixed with 5 mg vaseline, once a day
Description: normal mice as control and mice with type II diabetes established according to the method of Example 1 were taken, anesthetized, and then subjected to backside unhairing to establish a whole cortex wound with a 6 mm biopsy puncher. The mice were inoculated with 1.5×10^6 CFU/ml of Staphylococcus aureus. […]
The experimental method was the same as that of Example 3, except that the grouping and administration were as follows:
A normal control group: no administration, 5 mice.
A type II diabetes control group administrated with vaseline: vaseline, 5 mg vaseline/mouse, 5 mice.
A type II diabetes group administrated with vaseline+a drug A: 10 mg/mouse, 10 mice (as a flavonoid control, and the drug A was soybean isoflavones).
A type II diabetes group administrated with vaseline+a drug B: 10 mg/mouse, 10 mice (as a flavonoid control, and the drug B was quercetin).
A type II diabetes group administrated with vaseline+cannflavin A: […], 10 mice.
The aforementioned 5 groups were all inoculated with Staphylococcus aureus according to the previous step (1).
The administration modes of the latter 4 groups were all application onto the wound, and the administration was conducted once a day. In the latter 3 groups, the drug A, the drug B or cannflavin A were respectively well mixed with 5 mg of vaseline as an ointment base and then administered.

Structure (SMILES): O=c1c(O)c(-c2ccc(O)c(O)c2)oc2cc(O)cc(O)c12 [drug B, quercetin, reference compound]
- time in which the wound basically healed ([1]; applied onto the wound once a day, normal mice, no infection): about 4 days
- promoting the healing degree of wounds without bacterial infection, compared among drugs, vaseline and control ([1]; once a day, days 0, 4 and 7): no significant difference
- help to wound healing [2]: could not help wound healing
